Columns and labels:
[1] = Pharmacokinetics in Cynomolgus monkeys by oral gavage; format: in vivo; conditions: for AUC / half-life / Cmax: male, cynomolgus monkey, plasma, PO 2 mg/kg; for half-life: read-out: Half-life T½ (converted); for Cmax: read-out: Plasma concentration Cmax; for Pharmacokinetic properties compared with Atogepant: conclusion in words
Description: The compounds of the present application were administered by gavage to cynomolgus monkeys as test animals, and the drug concentrations in plasma at different times were determined by LC/MS/MS to study the pharmacokinetic characteristics of the compounds of the present application […].
• Positive control compound Atogepant, Example 1A and Example 3A of the present application; • Six healthy adult male Cynomolgus monkeys, Kangshun Biotechnology Co., Ltd.
An appropriate amount of the compound to be tested was weighed, added with 100% polyethylene glycol 400, and vortexed to dissolve the compound. After the preparation was completed, it would be a colorless and transparent solution with a concentration of 1 mg/mL.
Six healthy adult male cynomolgus monkeys were fasted overnight and fed 4 hours after drug administration.
About 0.2 mL of blood was collected from the jugular vein before administration and 0.25 hours, 0.5 hours, 1 hour, 2 hours, 4 hours, 6 hours, 8 hours, 10 hours and 24 hours after administration, and anticoagulated with EDTA-K2. After blood samples were collected, they were placed in labeled ice-water bath centrifuge tubes and rapidly centrifuged to separate plasma. The centrifugation conditions were: 4000 rpm, 10 minutes, 4° C. The collected plasma was stored at below −40° C. for testing. The content of the test compound in the plasma of Cynomolgus monkeys after gavage of different compounds was determined by LC-MS/MS.

[2] = Pharmacokinetics in SD rats by oral gavage; format: in vivo; conditions: for AUC / bioavailability / half-life / Cmax: male, Sprague-Dawley, rat, plasma, PO 10 mg/kg; for bioavailability: read-out: Bioavailability F; for half-life: read-out: Half-life period T½ (converted); for Cmax: read-out: Plasma concentration Cmax; for Pharmacokinetic properties compared with Atogepant: conclusion in words
Excerpt: SD rats were used as test animals, and the LC/MS/MS method was used to determine the drug concentration in plasma at different times after gavage and intravenous […] of the compound of the application, so as to study the pharmacokinetic characteristics of the compound of the application in rats.
Positive control compound Atogepant, Example 1A and Example 3A of the present application;
Eighteen healthy adult Sprague Dawley (SD) male rats were purchased from Joinn (Suzhou) New Drug Research Center Co., Ltd.
An appropriate amount of the compound to be tested was weighed, added with 100% polyethylene glycol 400, and vortexed to dissolve the compound. After the preparation was completed, it would be a colorless and transparent solution with a concentration of 2 mg/mL.
An appropriate amount of the compound to be tested was weighed, added 90% polyethylene glycol 400 and 10% ethanol, and vortexed to dissolve the compound. After the preparation was completed, it would be a colorless and transparent solution with a concentration of 1 mg/mL.
Eighteen healthy adult SD male rats were fasted overnight and fed 4 hours after drug administration.
About 0.2 mL of blood was collected from the jugular vein before administration and 0.083 hours, 0.25 hours, 0.5 hours, 1 hour, 2 hours, 4 hours, 6 hours, 8 hours, 10 hours and 24 hours after administration, and anticoagulated with EDTA-K2. After blood samples were collected, they were placed in labeled ice-water bath centrifuge tubes and rapidly centrifuged to separate plasma. The centrifugation conditions were: 4000 rpm, 10 minutes, 4° C. The collected plasma was stored at below −40° C. for testing. The content of the tested compounds in the plasma of SD rats after gavage and intravenous administration of different compounds was determined by LC-MS/MS.

CGRP receptor [3] = target: T1, CGRP receptor (Homo sapiens, UniProt O60894+Q16602); assay: Inhibition of CGRP signaling pathway (cAMP, HTRF) in SK-N-MC cells; format: cell-based; set-up: SK-N-MC (ATCC, HTB-10) cells endogenously expressing CGRP receptor; host or cells: SK-N-MC; conditions: [α-CGRP]=10 ng/mL; increase in cAMP levels; read-out: IC50 of the inhibitory effect on the CGRP signaling pathway in SK-N-MC cells
Description: (§1) The inhibitory effect of the CGRP signaling pathway in vitro is evaluated by measuring the cAMP level. The principle is that after CGRP binds to the CGRP receptor, the CGRP signaling pathway is activated, inducing an increase in the cAMP level. […] The specific experimental method is as follows:
cAMP was determined using the CAMP-GS DYNAMIC KIT detection kit (Cisbio, 62AM4PEB).
SK-N-MC (ATCC, HTB-10) cells endogenously expressing CGRP receptor were cultured in EMEM+10% FBS medium and the cells were collected during the logarithmic growth phase. According to the instructions of the kit, the cells were resuspended in Stimulation Buffer comprising 0.5 mM IBMX, and 5 μL of the cell suspension was added to each well of a 96-well microplate (Cisbio, 66PL96025) at a cell density of 15,000 cells/well, 2.5 μL of gradient diluted compound solution was added to each well. After incubation at 37° C. for 30 minutes, 2.5 μL of 40 ng/ml human α-CGRP (Bachem, H-1470.0500) diluted in Stimulation Buffer comprising 0.5 mM IBMX was added to each well to a final concentration of 10 ng/ml. After incubation at 37° C. for 30 minutes, 5 μL of Anti-cAMP-Cryptate solution and 5 μL of cAMP-d2 solution were added to each well. After incubation at room temperature for 60 minutes, the HTRF signal was read using a microplate reader (Molecular Devices). Graphpad Prism was used to calculate the IC50 value of the compound's inhibitory effect on the increase in cAMP levels based on the compound concentration and HTRF signal.

CGRP receptor [4] = target: T1, CGRP receptor; assay: Inhibition of CGRP signaling pathway (cAMP, HTRF) in CHO-K1 cells expressing human CGRP receptors; format: cell-based; set-up: host or cells: CHO-K1; conditions: [α-CGRP]=10 ng/ml; increase in cAMP levels; read-out: IC50 of the inhibitory effect on the CGRP signaling pathway in CHO-K1 cells expressing human CGRP receptors
Description: as §1
CHO-K1 cells expressing human CGRP receptor (CGRPR/CHO-K1, PerkinElmer, ES-420-C) were cultured in F12K+10% FBS+400 μg/mL G418+10 μg/mL Blasticidin medium, and the cells were collected in the logarithmic growth phase. According to the instructions of the kit, the cells were resuspended in Stimulation Buffer comprising 0.5 mM IBMX, and 5 μL of the cell suspension was added to each well of a 96-well microplate (Cisbio, 66PL96025) at a cell density of 15,000 cells/well. 2.5 μL of gradient diluted compound solution was added to each well. After incubation at 37° C. for 30 minutes, 2.5 μL of 40 ng/ml human α-CGRP (Bachem, H-1470,0500) diluted in Stimulation Buffer comprising 0.5 mM IBMX was added to each well to a final concentration of 10 ng/ml. After incubation at 37° C. for 30 minutes, 5 μL of Anti-cAMP-Cryptate solution and 5 μL of cAMP-d2 solution were added to each well. After incubation at room temperature for 60 minutes, the HTRF signal was read using a microplate reader (Molecular Devices). Graphpad Prism was used to calculate the IC50 value of the compound's inhibitory effect on the increase in cAMP levels based on the compound concentration and HTRF signal.

T1 sequence (Q16602 23-461): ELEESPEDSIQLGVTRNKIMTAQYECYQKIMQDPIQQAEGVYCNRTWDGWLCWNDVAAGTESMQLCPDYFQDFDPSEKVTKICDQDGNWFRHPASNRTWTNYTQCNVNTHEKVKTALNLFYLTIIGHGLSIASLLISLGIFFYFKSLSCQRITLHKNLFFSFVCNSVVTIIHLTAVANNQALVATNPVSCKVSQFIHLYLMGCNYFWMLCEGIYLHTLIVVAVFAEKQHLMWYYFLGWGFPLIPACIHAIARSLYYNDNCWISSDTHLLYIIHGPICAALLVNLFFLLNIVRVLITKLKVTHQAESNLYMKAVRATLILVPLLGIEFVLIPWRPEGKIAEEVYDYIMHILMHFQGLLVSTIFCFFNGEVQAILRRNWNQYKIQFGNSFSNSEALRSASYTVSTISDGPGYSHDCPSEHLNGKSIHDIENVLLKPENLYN
T1 sequence (O60894 27-148): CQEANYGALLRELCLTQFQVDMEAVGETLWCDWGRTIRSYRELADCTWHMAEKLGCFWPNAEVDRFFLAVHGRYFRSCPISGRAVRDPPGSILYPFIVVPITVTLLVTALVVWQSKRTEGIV

| AUC [1] [ng·h/mL] | half-life [1] [h] | Cmax [1] [ng/mL] | AUC [2] [ng·h/mL] | bioavailability [2] [%] | half-life [2] [h] | Cmax [2] [ng/mL] | IC50 (CGRP receptor [3]) [nM] | IC50 (CGRP receptor [4]) [nM] | Pharmacokinetic properties compared with Atogepant [1] | Pharmacokinetic properties compared with Atogepant [2] | Compound |
| --- | --- | --- | --- | --- | --- | --- | --- | --- | --- | --- | --- |
| 396 ± 42 | 1.5 ± 0.1 | 108 ± 18 | 2440 ± 1400 | 12.5 ± 7.3 | 1.6 ± 0.3 | 560 ± 233 | 0.12 | 1.5 |  |  | C[C@@H]1[C@H](c2c(F)ccc(F)c2F)C[C@H](NC(=O)c2cnc3c(c2)C[C@@]2(C3)C(=O)Nc3ncccc32)C(=O)N1CC(F)(F)F [Atogepant, reference compound] |
| 3590 ± 742 | 2.96 ± 0.3 | 778 ± 144 | 42500 ± 8520 | 90.5 ± 19.1 | 1.62 ± 0.2 | 10500 ± 3730 | 0.68 | 2.9 | good pharmacokinetic properties | good pharmacokinetic properties | C[C@@H]1[C@H](c2c(F)ccc(F)c2F)C[C@H](NC(=O)c2cc3c(s2)C[C@]2(C3)C(=O)Nc3ncccc32)C(=O)N1CC(F)(F)F [Example 3A, (S)—N-((3S,5S,6R)-6-methyl-2-oxo-1-(2,2,2-trifluoroethyl)-5-(2,3,6-trifluorophenyl)piperidin-3-yl)-2′-oxo-1′,2′,4,6-tetrahydrospiro[cyclopenta[b]thiophene-5,3′-pyrrolo[2,3-b]pyridine]-2-carboxamide] |
| 1840 ± 1190 | 3.77 ± 0.2 | 294 ± 166 | 23200 ± 7950 | 38.6 ± 13.3 | 2.93 ± 0.6 | 3850 ± 1460 | 0.18 | 14.5 | good pharmacokinetic properties | good pharmacokinetic properties | C[C@@H]1[C@H](c2c(F)ccc(F)c2F)C[C@H](NC(=O)c2cc3c(o2)CC[C@]2(C3)C(=O)Nc3ncccc32)C(=O)N1CC(F)(F)F [Example 1A, (R)—N-((3S,5S,6R)-6-methyl-2-oxo-1-(2,2,2-trifluoroethyl)-5-(2,3,6-trifluorophenyl)piperidin-3-yl)-2′-oxo-1′,2′,6,7-tetrahydro-4H-spiro[benzofuran-5,3′-pyrrolo[2,3-b]pyridine]-2-carboxamide] |

From patent US20250353860A1, “PIPERIDINE CARBOXAMIDE AZAINDANE DERIVATIVE, METHOD FOR PREPARING SAME, AND USE THEREOF” (BRISE PHARMACEUTICALS CO., LTD., priority 2022, published 2025)
